According to patent publication US9365576B2, “Pyrrolopyrrolidinone compounds” (Novartis AG, priority 2012, dated 2016):

target: human MDM2 protein (amino acids 2-188) (Homo sapiens (Human), UniProt Q00987); test: TR-FRET assay, p53-MDM2 Assay 2 (modified); assay type: binding; settings: TR-FRET; 0.1 nM MDM2, 0.1 nM Europium labeled streptavidin, Tecan genios Pro reader; read-out: IC50 p53-MDM2 Assay 2
Procedure, shortened: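 IC50 values were curve-fitted from the time-resolved 665/620 nm emission ratio after 340 nm excitation. The assay combined 0.625 nM europium-streptavidin donor with 1.25 nM C-terminally biotinylated MDM2 2–188 (15 min, RT), followed by 15 min with 10 nM Cy5-labeled p53 18–26 acceptor peptide.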

human MDM2 protein (amino acids 2-188), sequence (Q00987 2-188): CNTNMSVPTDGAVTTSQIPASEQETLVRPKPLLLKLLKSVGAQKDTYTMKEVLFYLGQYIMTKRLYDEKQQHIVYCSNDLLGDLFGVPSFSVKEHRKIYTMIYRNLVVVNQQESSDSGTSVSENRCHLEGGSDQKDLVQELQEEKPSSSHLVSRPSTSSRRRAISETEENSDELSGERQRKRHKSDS

| SMILES | IC50 |
| --- | --- |
| COc1ncc(-c2cc3c(n2C(C)C)C(c2ccc(C#N)c(F)c2)N(c2cc(Cl)c[nH]c2=O)C3=O)c(OC)n1 (stereo not drawn) [Example 200, 4-[5-(5-Chloro-2-oxo-1,2-dihydro-pyridin-3-yl)-2-(2,4-dimethoxy-pyrimidin-5-yl)-1-isopropyl-4-oxo-1,4,5,6-tetrahydro-pyrrolo[3,4-b]pyrrol-6-yl]-2-fluoro-benzonitrile] | 0.37 nM |
| COc1nc(N)ncc1-c1cc2c(n1C(C)C)C(c1ccc(Cl)cc1)N(c1cc(Cl)cnc1OC)C2=O (stereo not drawn) [Example 206, 2-(2-Amino-4-methoxy-pyrimidin-5-yl)-5-(5-chloro-2-methoxy-pyridin-3-yl)-6-(4-chloro-phenyl)-1-isopropyl-5,6-dihydro-1H-pyrrolo[3,4-b]pyrrol-4-one] | 0.509 nM |
| COc1cn(C)c(=O)cc1-c1cc2c(n1C(C)C)C(c1ccc(Cl)cc1)N(c1c(F)c(C)nn1C)C2=O (stereo not drawn) [Example 208, 6-(4-Chloro-phenyl)-5-(4-fluoro-2,5-dimethyl-2H-pyrazol-3-yl)-1-isopropyl-2-(5-methoxy-1-methyl-2-oxo-1,2-dihydro-pyridin-4-yl)-5,6-dihydro-1H-pyrrolo[3,4-b]pyrrol-4-one] | 0.861 nM |
| COc1nc(N)ncc1-c1cc2c(n1C(C)C)C(c1ccc(Cl)cc1)N(c1c(F)c(C)nn1C)C2=O (stereo not drawn) [Example 210, 2-(2-Amino-4-methoxy-pyrimidin-5-yl)-6-(4-chloro-phenyl)-5-(4-fluoro-2,5-dimethyl-2H-pyrazol-3-yl)-1-isopropyl-5,6-dihydro-1H-pyrrolo[3,4-b]pyrrol-4-one] | 3.9 nM |
| COc1ncc(-c2cc3c(n2C(C)C)C(c2ccc(C#N)cc2)N(c2c(F)c(C)nn2C)C3=O)c(OC)n1 (stereo not drawn) [Example 211, 4-[2-(2,4-Dimethoxy-pyrimidin-5-yl)-5-(4-fluoro-2,5-dimethyl-2H-pyrazol-3-yl)-1-isopropyl-4-oxo-1,4,5,6-tetrahydro-pyrrolo[3,4-b]pyrrol-6-yl]-benzonitrile] | 1.68 nM |
| COc1nc(N(C)C)ncc1-c1cc2c(n1C(C)C)C(c1ccc(Cl)cc1F)N(c1cc(C)nn1C)C2=O (stereo not drawn) [Example 212, 6-(4-Chloro-2-fluoro-phenyl)-2-(2-dimethylamino-4-methoxy-pyrimidin-5-yl)-5-(2,5-dimethyl-2H-pyrazol-3-yl)-1-isopropyl-5,6-dihydro-1H-pyrrolo[3,4-b]pyrrol-4-one] | 0.769 nM |
| COc1ncc(-c2cc3c(n2C(C)C)C(c2ccc(Cl)cn2)N(c2cc(Cl)cn(C)c2=O)C3=O)c(OC)n1 (stereo not drawn) [Example 213, 5-(5-Chloro-1-methyl-2-oxo-1,2-dihydro-pyridin-3-yl)-6-(5-chloro-pyridin-2-yl)-2-(2,4-dimethoxy-pyrimidin-5-yl)-1-isopropyl-5,6-dihydro-1H-pyrrolo[3,4-b]pyrrol-4-one] | 14.2 nM |
| COc1ncc(-c2cc3c(n2C(C)C)C(c2ccc(Cl)cn2)N(c2ccc(F)c(Cl)c2)C3=O)c(OC)n1 (stereo not drawn) [Example 214, 5-(3-Chloro-4-fluoro-phenyl)-6-(5-chloro-pyridin-2-yl)-2-(2,4-dimethoxy-pyrimidin-5-yl)-1-isopropyl-5,6-dihydro-1H-pyrrolo[3,4-b]pyrrol-4-one] | 1.89 nM |
| COc1ncc(-c2cc3c(n2C(C)C)[C@H](c2ccc(C#N)cc2)N(c2cc(Cl)cn(C)c2=O)C3=O)c(OC)n1 [Example 215, 4-[(S)-5-(5-Chloro-1-methyl-2-oxo-1,2-dihydro-pyridin-3-yl)-2-(2,4-dimethoxy-Pyrimidin-5-yl)-1-isopropyl-4-oxo-1,4,5,6-tetrahydro-pyrrolo[3,4-b]pyrrol-6-yl]-benzonitrile] | 0.527 nM |
| COc1ncc(-c2cc3c(n2C(C)C)[C@@H](c2ccc(C#N)cc2)N(c2cc(Cl)cn(C)c2=O)C3=O)c(OC)n1 [Example 216, 4-[(R)-5-(5-Chloro-1-methyl-2-oxo-1,2-dihydro-pyridin-3-yl)-2-(2,4-dimethoxy-pyrimidin-5-yl)-1-isopropyl-4-oxo-1,4,5,6-tetrahydro-pyrrolo[3,4-b]pyrrol-6-yl]-benzonitrile] | 883 nM |
| [2H]C([2H])([2H])Oc1ncc(-c2cc3c(n2C(C)C)[C@@H](c2ccc(Cl)cc2)N(c2cc(Cl)c(=O)n(C)c2)C3=O)c(OC([2H])([2H])[2H])n1 [Example 219, (R)-5-(5-Chloro-1-methyl-6-oxo-1,6-dihydro-pyridin-3-yl)-6-(4-chloro-phenyl)-2-(2,4-d6-dimethoxy-pyrimidin-5-yl)-1-isopropyl-5,6-dihydro-1H-pyrrolo[3,4-b]pyrrol-4-one] | 28.3 nM |
| COC[C@@H](C)n1c(-c2cnc(OC)nc2OC)cc2c1C(c1ccc(C#N)cc1)N(c1ccc(F)c(Cl)c1)C2=O (stereo partly drawn) [Example 222, 4-[(R,S)-5-(3-Chloro-4-fluoro-phenyl)-2-(2,4-dimethoxy-pyrimidin-5-yl)-1-((R)-2-methoxy-1-methyl-ethyl)-4-oxo-1,4,5,6-tetrahydro-pyrrolo[3,4-b]pyrrol-6-yl]-benzonitrile] | 0.303 nM |
| COC[C@@H](C)n1c(-c2cnc(N)nc2OC)cc2c1C(c1ccc(C#N)cc1)N(c1ccc(F)c(Cl)c1)C2=O (stereo partly drawn) [Example 223] | 0.631 nM |

Compounds with a lower IC50, results first:

| IC50 | SMILES |
| --- | --- |
| 0.257 nM | COc1nc(N(C)C)ncc1-c1cc2c(n1C(C)C)C(c1ccc(C#N)c(F)c1)N(c1cc(Cl)cn(C)c1=O)C2=O (stereo not drawn) [Example 199, 4-[5-(5-Chloro-1-methyl-2-oxo-1,2-dihydro-pyridin-3-yl)-2-(2-dimethylamino-4-methoxy-pyrimidin-5-yl)-1-isopropyl-4-oxo-1,4,5,6-tetrahydro-pyrrolo[3,4-b]pyrrol-6-yl]-2-fluoro-benzonitrile] |
| 0.25 nM | COc1nc(N(C)C)ncc1-c1cc2c(n1C(C)C)C(c1ccc(C#N)c(F)c1)N(c1cc(Cl)c[nH]c1=O)C2=O (stereo not drawn) [Example 201, 4-[5-(5-Chloro-2-oxo-1,2-dihydro-pyridin-3-yl)-2-(2-dimethylamino-4-methoxy-pyrimidin-5-yl)-1-isopropyl-4-oxo-1,4,5,6-tetrahydro-pyrrolo[3,4-b]pyrrol-6-yl]-2-fluoro-benzonitrile] |
| 0.201 nM | COc1ncc(-c2cc3c(n2C(C)C)C(c2ccc(Cl)c(F)c2)N(c2cc(Cl)c[nH]c2=O)C3=O)c(OC)n1 (stereo not drawn) [Example 202, 6-(4-Chloro-3-fluoro-phenyl)-5-(5-chloro-2-oxo-1,2-dihydro-pyridin-3-yl)-2-(2,4-dimethoxy-pyrimidin-5-yl)-1-isopropyl-5,6-dihydro-1H-pyrrolo[3,4-b]pyrrol-4-one] |
| 0.119 nM | COc1nc(N(C)C)ncc1-c1cc2c(n1C(C)C)C(c1ccc(Cl)c(F)c1)N(c1cc(Cl)c[nH]c1=O)C2=O (stereo not drawn) [Example 203, 6-(4-Chloro-3-fluoro-phenyl)-5-(5-chloro-2-oxo-1,2-dihydro-pyridin-3-yl)-2-(2-dimethylamino-4-methoxy-pyrimidin-5-yl)-1-isopropyl-5,6-dihydro-1H-pyrrolo[3,4-b]pyrrol-4-one] |
| 0.195 nM | COc1ncc(-c2cc3c(n2C(C)C)C(c2ccc(Cl)cc2)N(c2cc(Cl)c[nH]c2=O)C3=O)c(OC)n1 (stereo not drawn) [Example 204, 5-(5-Chloro-2-oxo-1,2-dihydro-pyridin-3-yl)-6-(4-chloro-phenyl)-2-(2,4-dimethoxy-pyrimidin-5-yl)-1-isopropyl-5,6-dihydro-1H-pyrrolo[3,4-b]pyrrol-4-one] |
| 0.198 nM | COc1cn(C)c(=O)cc1-c1cc2c(n1C(C)C)C(c1ccc(Cl)cc1)N(c1cc(Cl)cnc1OC)C2=O (stereo not drawn) [Example 205, 5-(5-Chloro-2-methoxy-pyridin-3-yl)-6-(4-chloro-phenyl)-1-isopropyl-2-(5-methoxy-1-methyl-2-oxo-1,2-dihydro-pyridin-4-yl)-5,6-dihydro-1H-pyrrolo[3,4-b]pyrrol-4-one] |
| 0.185 nM | COc1nc(N(C)C)ncc1-c1cc2c(n1C(C)C)C(c1ccc(C#N)cc1)N(c1cc(Cl)cnc1OC)C2=O (stereo not drawn) [Example 207, 4-[5-[5-Chloro-2-methoxy-pyridin-3-yl)-2-(2-dimethylamino-4-methoxy-pyrimidin-5-yl)-1-isopropyl-4-oxo-1,4,5,6-tetrahydro-pyrrolo[3,4-b]pyrrol-6-yl]-benzonitrile] |
| 0.158 nM | COc1nc(N(C)C)ncc1-c1cc2c(n1C(C)C)C(c1ccc(Cl)cc1)N(c1c(F)c(C)nn1C)C2=O (stereo not drawn) [Example 209, 6-(4-Chloro-phenyl)-2-(2-dimethylamino-4-methoxy-pyrimidin-5-yl)-5-(4-fluoro-2,5-dimethyl-2H-pyrazol-3-yl)-1-isopropyl-5,6-dihydro-1H-pyrrolo[3,4-b]pyrrol-4-one] |
| 0.106 nM | [2H]C([2H])([2H])Oc1ncc(-c2cc3c(n2C(C)C)[C@H](c2ccc(Cl)cc2)N(c2cc(Cl)c(=O)n(C)c2)C3=O)c(OC([2H])([2H])[2H])n1 [Example 218, (S)-5-(5-Chloro-1-methyl-6-oxo-1,6-dihydro-pyridin-3-yl)-6-(4-chloro-phenyl)-2-(2,4-d6-dimethoxy-pyrimidin-5-yl)-1-isopropyl-5,6-dihydro-1H-pyrrolo[3,4-b]pyrrol-4-one] |
| 0.134 nM | CCOC(=O)c1c2c(n(C(C)C)c1-c1cnc(OC)nc1OC)C(c1ccc(Cl)cc1)N(c1cc(Cl)c(=O)n(C)c1)C2=O (stereo not drawn) [Example 220, 5-(5-Chloro-1-methyl-6-oxo-1,6-dihydro-pyridin-3-yl)-6-(4-chloro-phenyl)-2-(2,4-dimethoxy-pyrimidin-5-yl)-1-isopropyl-4-oxo-1,4,5,6-tetrahydro-pyrrolo[3,4-b]pyrrole-3-carboxylic acid ethyl ester] |
| 0.14 nM | COc1ncc(-c2c(C(=O)O)c3c(n2C(C)C)C(c2ccc(Cl)cc2)N(c2cc(Cl)c(=O)n(C)c2)C3=O)c(OC)n1 (stereo not drawn) [Example 221, 5-(5-Chloro-1-methyl-6-oxo-1,6-dihydro-pyridin-3-yl)-6-(4-chloro-phenyl)-2-(2,4-dimethoxy-pyrimidin-5-yl)-1-isopropyl-4-oxo-1,4,5,6-tetrahydro-pyrrolo[3,4-b]pyrrole-3-carboxylic acid] |
